In patent US7579371B2, “Methods of using [3.2.0] heterocyclic compounds and analogs thereof” (Nereus Pharmaceuticals, Inc., priority 2004, dated 2009):
pEC50: −log10 of the molar value. Values joined by “and” are separate entries in the source; they are usually repeats but may differ in a detail not shown here. Equal values may be shown once. Read-outs that look alike come from different tables or passages of the source. Peptide text beside a SMILES is read from it. * marks the point of attachment. Cbz = O=C(OCc1ccccc1)*

How the values were obtained:
[1] = target: rabbit muscle 20S proteasome, trypsin-like activity (Oryctolagus cuniculus, UniProt G1SWK8); experiment: Trypsin-like activity of purified rabbit 20S proteasome (Boc-LRR-AMC)
[2] = test system: NCI-H292; experiment: Cell growth inhibition assay (resazurin, 48 h); type: cell-based, human; settings: Homo sapiens, NCI-H292, 48 h
[3] = test system: HL-60/MX2; experiment: Cell growth inhibition assay (resazurin, 48 h); settings: HL-60/MX2, 48 h
Description: The DNA binding agent Mitoxantrone was included as a control, as HL-60/MX2 cells are reported to be resistant to this chemotherapeutic agent (Harker W. G. et al. 1989).
(§1) Concentrations ranging from 6.32 μM to 2 nM were tested for II-2 and II-4.
HL-60/MX2 is a multidrug resistant tumor cell line derived from the human promyelocytic leukemia cell line, HL-60 and expresses reduced topoisomerase II activity. […] Mitoxantrone, the topoisomerase II targeting agent was included as a control.

[4] = test system: MES-SA/Dx5; experiment: Cell growth inhibition assay (resazurin, 48 h); settings: for pEC50: MES-SA/Dx5, 48 h
Description: as §1
The multidrug resistant MES-SA/Dx5 tumor cell line was derived from the human uterine sarcoma MES-SA tumor cell line and expresses elevated P-Glycoprotein (P-gp), an ATP dependent efflux pump.

[5] = test system: U266; experiment: Cell growth inhibition assay (resazurin, 48 h); type: cell-based; settings: Homo sapiens, U-266, 48 h, U266, 48 h; read-out: EC50
[6] = test system: PC-3; experiment: Cell growth inhibition assay (resazurin, 48 h); settings: Homo sapiens, PC-3, 48 h
[7] = test system: NF-κB; experiment: NF-κB-mediated luciferase reporter gene assay, HEK293 NF-κB/Luc cells, TNF-α stimulation; type: cell-based; settings: Homo sapiens, HEK293, 1 hr pretreatment, 6 hours TNF-α; read-out: EC50, NF-κB-mediated luciferase activity
Description: The HEK293 NF-κB/luciferase reporter cell line is a derivative of the human embryonic kidney cell line (ATCC; CRL-1573) and carries a luciferase reporter gene under the regulation of 5× NF-κB binding sites. […] When performing the luciferase assay, the DMEM basal medium was replaced with phenol-red free DMEM basal medium and the G418 was omitted.
For NF-κB-mediated luciferase assays, HEK293 NF-κB/luciferase cells were seeded at 1.5×10^4 cells/well in 90 μl phenol-red free DMEM complete medium into Corning 3917 white opaque-bottom tissue culture plates. For Formulae II-2, II-4, II-5A and II-18, a 400 μM starting dilution was made in 100% DMSO and this dilution was used to generate an 8-point half log dilution series. […] For formula II-20, a 2.5 mM or 8 mM starting dilution was made in 100% DMSO and the final test concentrations ranged from 6.3 μM to 2.0 nM or 20 μM to 6.3 nM respectively. The plates were returned to the incubator for 1 hour. After 1 hr pretreatment, 10 μl of a 50 ng/ml TNF-α solution, prepared in the phenol-red free DMEM medium was added, and the plates were incubated for an additional 6 hours.
At the end of the TNF-α stimulation, 100 μl of Steady Lite HTS luciferase reagent (Packard Bioscience) was added to each well and the plates were left undisturbed for 10 min at room temperature before measuring the luciferase activity. The relative luciferase units (RLU) were measured by using a Fusion microplate fluorometer (Packard Bioscience).
NF-κB inducible luciferase activity was measured at 6 hours.

[8] = target: T1, 20S proteasome chymotrypsin-like activity in PC-3 cells (Homo sapiens, UniProt P28074); experiment: Chymotrypsin-like activity of 20S proteasomes in treated PC-3 cells; type: cell-based; settings: 1 hr
T1 construct: PC-3 (ATCC, CRL-1435), the human prostate cancer cell line; host or cells: PC-3
T1 sequence (P28074 60-263): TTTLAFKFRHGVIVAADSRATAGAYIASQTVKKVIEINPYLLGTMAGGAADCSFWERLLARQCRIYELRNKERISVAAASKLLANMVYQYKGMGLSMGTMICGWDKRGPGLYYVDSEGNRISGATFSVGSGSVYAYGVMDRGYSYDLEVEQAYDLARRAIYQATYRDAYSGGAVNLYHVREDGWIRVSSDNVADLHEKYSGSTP
Description: PC-3 (ATCC, CRL-1435), the human prostate cancer cell line, was cultured in F12K medium supplemented with 2 mM L-glutamine, 100 units/ml penicillin, 100 μg/ml streptomycin and 10% heat inactivated fetal bovine serum at 37° C., 5% CO2 and 95% humidified air. […] DMSO was used as the vehicle control at a final concentration of 0.1%. Following 1 hr incubation of PC-3 cells with the compounds, the cells were washed 3× with ice-cold 1× Dulbecco's Phosphate-Buffered Saline (DPBS, Mediatech, Herndon, Va.). […] Cell debris was pelleted by centrifugation at 14,000 rpm for 10 min, 4° C. and supernatants (=cell lysates) were transferred to a new tube. Protein concentration was determined by the BCA protein assay kit (Pierce Biotechnology, Rockford, Ill.). […] The released coumarin (AMC) was measured fluorometrically by using λex=390 nm and λem=460 nm. The assay was performed in a microtiter plate (Corning 3904) and followed kinetically with measurements every five minutes for 2 hr. The total amount of protein used for each assay was 20 μg. The final concentration of Suc-LLVY-AMC and DMSO was 20 μM and 0.2%, respectively. Results are presented as the percent inhibition of the 20S proteasome chymotrypsin-like activity relative to the DMSO control.

[9] = test system: RPMI 8226; experiment: Cell growth inhibition assay (resazurin, 48 h); settings: RPMI 8226
Description: RPMI 8226 (CCL-155), HT-29 (HTB-38), and B16-F10 (CRL-6475) cells were purchased from ATCC. RPMI 8226 cells were maintained in RPMI 1640 media supplemented with 10% (v/v) FBS, 2 mM L-glutamine, 1 mM sodium pyruvate and Penicillin/Streptomycin at 100 IU/ml and 100 μg/ml, respectively. HT-29 cells were maintained in McCoys 5A supplemented with 10% (v/v) FBS, 2 mM L-glutamine, 1 mM sodium pyruvate, 1% (v/v) non-essential amino acids, 10 mM HEPES and Penicillin/Streptomycin at 100 IU/ml and 100 μg/ml, respectively. B16-F10 cells were maintained in DMEM supplemented with 10% (v/v) FBS, 2 mM L-glutamine, 10 mM HEPES and Penicillin/Streptomycin at 100 IU/ml and 100 μg/ml, respectively.
RPMI 8226 cells were seeded at 2×10^4 cells/well in 90 μl RPMI media containing 10% (v/v) FBS or 1% (v/v) FBS into 96 well black-walled, clear-bottom tissue culture plates. […] Formulae II-16, II-17 and Formula II-18 were serially diluted in media containing 1% or 10% FBS and added in triplicate to the test wells. […] The final concentration of Formula II-18 ranged from 2 μM to 630 pM.

[10] = target: rabbit muscle 20S proteasome, chymotrypsin-like activity (Oryctolagus cuniculus, UniProt G1T4Q9); experiment: Chymotrypsin-like activity of purified rabbit muscle 20S proteasome (suc-LLVY-AMC); type: biochemical
Description: This peptide substrate is specific for the chymotrypsin-like enzyme activity of the proteasome.
Omuralide was prepared as a 10 mM stock in DMSO and stored in 5 μL aliquots at −80° C. […] The assay measures the hydrolysis of Suc-LLVY-AMC into Suc-LLVY and AMC. The released coumarin (AMC) was measured fluorometrically by using λex=390 nm and λem=460 nm. The assays were performed in a microtiter plate (Corning 3904), and followed kinetically with measurements every five minutes. The instrument used was a Thermo Lab Systems Fluoroskan, with the incubation chamber set to 37° C. The assays were performed according to the manufacturer's protocol, with the following changes. The proteasome was activated as described with SDS, and held on ice prior to the assay. […] Ten microliters of each dose were added in triplicate to the assay plate, and 190 μL of the activated proteasome was added and mixed. The samples were pre-incubated in the Fluoroskan for 5 minutes at 37° C. Substrate was added and the kinetics of AMC were followed for one hour.

[11] = Stability in solution; type: physicochemical
From the text: Compound VI-1B: UV (Acetonitrile/H2O) λmax 235 (sh) nm; ESMS, m/z 585.2 (M+H)^+.

[12] = test system: RAW264.7 cells; settings: Tang et al., Infect Immun 67:3055 (1999); read-out: EC50 in the LeTx assay; cited from earlier work
[13] = test system: RAW264.7 cells; experiment: cells; settings: Mus musculus, RAW264.7, read-out: viability, compound + LeTx

rabbit muscle 20S proteasome, trypsin-like activity, sequence (G1SWK8 1-271): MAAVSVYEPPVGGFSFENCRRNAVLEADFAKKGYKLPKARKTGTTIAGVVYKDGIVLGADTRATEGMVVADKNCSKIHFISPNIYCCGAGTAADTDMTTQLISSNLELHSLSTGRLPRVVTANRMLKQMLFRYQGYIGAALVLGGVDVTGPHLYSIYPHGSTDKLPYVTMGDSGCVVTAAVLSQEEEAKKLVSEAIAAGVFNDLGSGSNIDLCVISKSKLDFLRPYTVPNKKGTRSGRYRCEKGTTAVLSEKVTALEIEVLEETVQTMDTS
rabbit muscle 20S proteasome, chymotrypsin-like activity, sequence (G1T4Q9 1-263): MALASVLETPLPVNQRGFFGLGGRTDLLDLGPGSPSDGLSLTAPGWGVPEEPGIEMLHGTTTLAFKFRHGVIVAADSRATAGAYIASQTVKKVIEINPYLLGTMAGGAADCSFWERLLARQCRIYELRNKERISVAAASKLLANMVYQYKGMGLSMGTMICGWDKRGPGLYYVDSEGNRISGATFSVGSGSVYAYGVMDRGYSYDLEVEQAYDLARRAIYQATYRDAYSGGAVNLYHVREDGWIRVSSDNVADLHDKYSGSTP

`C[C@@]12OC(=O)[C@]1([C@@H](O)[C@H]1CCC[C@H]3O[C@@H]13)NC(=O)[C@@H]2CCCl` (single isomer, unassigned) [Formula II-5A] showed a pEC50 [1] of 7.06.
With `C[C@@]12OC(=O)[C@]1([C@@H](O)C1CCCCC1)NC(=O)[C@@H]2CCCl` [Formula II-2] the pEC50 [2] was 6.40, the pEC50 ([2]; read-out: EC50) was 6.49 and the pEC50 ([3]; Homo sapiens, HL60/MX2, 48 h) was 6.85. For the same molecule, the pEC50 ([4]; Homo sapiens) was 6.66 and the pEC50 [4] was 6.86.
Work on `CC[C@H]1C(=O)N[C@@]2([C@@H](O)C3CCCCC3)C(=O)O[C@@]12C` [Formula II-3] yielded a pEC50 [5] of less than 4.70, a pEC50 [6] of less than 4.70 and a pEC50 [7] of less than 4.70. For the same molecule, the pEC50 ([4]; Homo sapiens) was less than 4.70.
Molecule `C[C@@]12OC(=O)[C@]1([C@@H](O)C1CCCCC1)NC(=O)[C@@H]2CCBr` [Formula II-4] has a pEC50 [5] of 7.41, a pEC50 [2] of 6.67 and a pEC50 ([2]; read-out: EC50) of 6.72. For the same molecule, the pEC50 ([4]; Homo sapiens) was 6.75 and the pEC50 [4] was 7.03.
In the case of `C[C@@]12OC(=O)[C@]1([C@@H](O)[C@H]1CCC[C@@H]3O[C@H]13)NC(=O)[C@@H]2CCCl` [Formula II-5B], the pEC50 [1] was 6.12 and 6.15.
For `CC[C@H]1C(=O)N[C@@]2([C@@H](O)[C@@H]3C=CCCC3)C(=O)O[C@@]12C` [Formula II-17], the “% inhibition of the chymotrypsin-like activity of 20S proteasomes in PC-3 cell lysates” value ([8]; 100 nM) was 26%, the inhibition at 0.01 µM ([8]; PC-3, read-out: % inhibition of the chymotrypsin-like activity of 20S proteasomes in PC-3 cell lysates, 10 nM) was 16% and the inhibition at 0.1 µM ([8]; PC-3, read-out: % inhibition of the chymotrypsin-like activity of 20S proteasomes in PC-3 cell lysates, 100 nM) was 26%. The inhibition at 1 µM ([8]; PC-3, read-out: % inhibition of the chymotrypsin-like activity of 20S proteasomes in PC-3 cell lysates, 1,000 nM) was 49% and the inhibition at 10 µM ([8]; PC-3, read-out: % inhibition of the chymotrypsin-like activity of 20S proteasomes in PC-3 cell lysates, 10,000 nM) was 79%.
For `C[C@@]12OC(=O)[C@]1([C@@H](O)[C@@H]1C=CCCC1)NC(=O)[C@@H]2CCBr` [Formula II-18], the “% cytotoxicity” value [9] was 94, 94%.
With `C[C@@]12OC(=O)[C@]1(C(=O)C1=CC(O)CCC1)NC(=O)[C@]2(C)CCCl` (some centres unmarked) [Formula II-31] the pEC50 [10] was less than 4.70.
In the case of `C[C@]1(O)[C@@H](CCCl)C(=O)N[C@]1(C(=O)SCC(NC(=O)CCC(N)C(=O)O)C(=O)NCC(=O)O)[C@@H](O)[C@@H]1C=CCCC1` (some centres unmarked) [Formula II-48], the stability in solution [11] was “unstable in solution”.
Work on `C[C@@]12OC(=O)[C@]1([C@@H](O)[C@H]1CCC[C@H](Cl)[C@H]1O)NC(=O)[C@@H]2CCCl` [Formula IV-3C] yielded a pEC50 [7] of less than 4.70.
For `CC(=O)N[C@@H](CSC(=O)[C@]1([C@@H](O)C(C)C)NC(=O)[C@H](C)[C@@H]1O)C(=O)O` [Lactacystin], the pEC50 [12] is listed as 5.52.
For `CC(C)C[C@@H](C=O)NC(=O)[C@H](CC(C)C)NC(=O)[C@H](CC(C)C)NC(=O)OCc1ccccc1` [MG132] (Cbz-Leu-Leu-Leu-aldehyde), the pEC50 [12] is listed as 5.52.
In the case of `O=C1c2c(O)ccc(O)c2C(=O)c2c(NCCNCCO)ccc(NCCNCCO)c21` [Mitoxantrone], the pEC50 [3] was 6.08 and 5.87 and 5.93 and the pEC50 ([3]; Homo sapiens, HL60/MX2, 48 h) was 5.85.
With `CC(C)[C@H](O)[C@@]12NC(=O)[C@H](C)[C@@H]1OC2=O` [Omuralide, reference compound] the viability at 1 µM [13] was 37% and the “% inhibition of the chymotrypsin-like activity of 20S proteasomes in PC-3 cell lysates” value ([8]; 100 nM) was 36%.
With `CC(=O)O[C@H]1C(=O)[C@@]2(C)[C@H]([C@H](OC(=O)c3ccccc3)[C@]3(O)C[C@H](OC(=O)[C@H](O)[C@@H](NC(=O)c4ccccc4)c4ccccc4)C(C)=C1C3(C)C)[C@]1(OC(C)=O)CO[C@@H]1C[C@@H]2O` [Paclitaxel, reference compound] the “% cytotoxicity” value [4] was 78 ± 1%.
